Data: BigSolDB 2.1

CCc1cc(C(N)=S)ccn1
solubility (mole fraction)
Details | 278.15 K | 283.15 K | 288.15 K | 293.15 K | 298.15 K | 303.15 K | 308.15 K | 313.15 K | 318.15 K | 323.15 K
in 2-ethoxyethanol | 0.0252 | 0.0261 | 0.0289 | 0.0336 | 0.0383 | 0.0449 | 0.0516 | 0.0596 | 0.0677 | 0.0751
in 2-methoxyethanol | 0.0343 | 0.0387 | 0.0441 | 0.0494 | 0.055 | 0.0617 | 0.0676 | 0.075 | 0.0848 | 0.094
in DMAc | 0.169 | 0.173 | 0.179 | 0.189 | 0.199 | 0.209 | 0.221 | 0.233 | 0.245 | 0.257
in DMF | 0.104 | 0.112 | 0.123 | 0.135 | 0.148 | 0.157 | 0.167 | 0.185 | 0.199 | 0.219
in DMSO | – | – | – | 0.187 | 0.205 | 0.216 | 0.228 | 0.243 | 0.259 | 0.271
in NMP | 0.182 | 0.191 | 0.199 | 0.212 | 0.22 | 0.23 | 0.242 | 0.253 | 0.265 | 0.277
in acetone | 0.00589 | 0.00695 | 0.00799 | 0.00925 | 0.0109 | 0.0124 | 0.0148 | 0.0172 | 0.0194 | 0.0226
in ethanol | 0.00464 | 0.00566 | 0.00695 | 0.00835 | 0.00993 | 0.012 | 0.0134 | 0.0161 | 0.0192 | 0.0228
in ethyl acetate | 0.00874 | 0.0102 | 0.0122 | 0.0144 | 0.0171 | 0.0199 | 0.0231 | 0.0265 | 0.0312 | 0.0381
in isopropanol | 0.00292 | 0.00334 | 0.0042 | 0.00507 | 0.00642 | 0.00805 | 0.0096 | 0.0115 | 0.0143 | 0.018
in methanol | 0.00534 | 0.0063 | 0.0074 | 0.00919 | 0.0112 | 0.013 | 0.0159 | 0.018 | 0.0215 | 0.0256
in n-propanol | 0.00381 | 0.00464 | 0.00562 | 0.00719 | 0.00862 | 0.0103 | 0.0128 | 0.0159 | 0.0192 | 0.0231
